In assay [1] the target is T1, collagenase.
T1 construct: gene colG
Nature of the assay: modified ninhydrin assay, absorbance at […] nm. Format: biochemical. The conditions noted are these: collagen substrate; 5 h at 37°C; calcium chloride; positive control.

The target of assay [2] is T2, elastase.
T2 construct: gene CELA1
Nature of the assay: absorbance at […] nm, nitroanilide release. It is filed as biochemical. The conditions noted are these: N-(methoxysuccinyl)-Ala-Ala-Pro-Val-4-nitroanilide substrate; 0.2 M Tris-HCl; 30 min; positive control.

Converted amounts (≈) assume the structure as drawn.

Data on 1 molecule can be found in article PMC11465873, “Functional Properties and Components of Koenigia alpina Extract” (Skin Research and Technology, 2024).

In the case of `O=C(O[C@@H]1Cc2c(O)cc(O)cc2O[C@@H]1c1cc(O)c(O)c(O)c1)c1cc(O)c(O)c(O)c1` [Epigallocatechin gallate], the half-inhibitory concentration (IC50) (in general, the concentration at which inhibition is half-maximal) in assay [1] worked out at 40 µg/mL (≈ 87.3 µM); in assay [2], 2620 µg/mL (≈ 5720 µM).
